Reference: patent publication US20230167073A1 (Teijin Pharma Limited, priority 2020, published 2023)

The compounds below were run against T1, Human TRPC6 (Homo sapiens, UniProt Q9Y210) (assay: Evaluation of TRPC6 channel inhibitory activity (1), FLIPR Calcium 5 Assay Kit, OAG stimulation (Compound Nos. 1-1293)). Details: Human TRPC6 stably-expressing cells, OAG 30 μM, FLIPR Calcium 5 Assay Kit; read-out: Inhibitory activity (pIC50 class) (converted).
T1 construct: expressed in transfected cells
T1 sequence (Q9Y210 1-931): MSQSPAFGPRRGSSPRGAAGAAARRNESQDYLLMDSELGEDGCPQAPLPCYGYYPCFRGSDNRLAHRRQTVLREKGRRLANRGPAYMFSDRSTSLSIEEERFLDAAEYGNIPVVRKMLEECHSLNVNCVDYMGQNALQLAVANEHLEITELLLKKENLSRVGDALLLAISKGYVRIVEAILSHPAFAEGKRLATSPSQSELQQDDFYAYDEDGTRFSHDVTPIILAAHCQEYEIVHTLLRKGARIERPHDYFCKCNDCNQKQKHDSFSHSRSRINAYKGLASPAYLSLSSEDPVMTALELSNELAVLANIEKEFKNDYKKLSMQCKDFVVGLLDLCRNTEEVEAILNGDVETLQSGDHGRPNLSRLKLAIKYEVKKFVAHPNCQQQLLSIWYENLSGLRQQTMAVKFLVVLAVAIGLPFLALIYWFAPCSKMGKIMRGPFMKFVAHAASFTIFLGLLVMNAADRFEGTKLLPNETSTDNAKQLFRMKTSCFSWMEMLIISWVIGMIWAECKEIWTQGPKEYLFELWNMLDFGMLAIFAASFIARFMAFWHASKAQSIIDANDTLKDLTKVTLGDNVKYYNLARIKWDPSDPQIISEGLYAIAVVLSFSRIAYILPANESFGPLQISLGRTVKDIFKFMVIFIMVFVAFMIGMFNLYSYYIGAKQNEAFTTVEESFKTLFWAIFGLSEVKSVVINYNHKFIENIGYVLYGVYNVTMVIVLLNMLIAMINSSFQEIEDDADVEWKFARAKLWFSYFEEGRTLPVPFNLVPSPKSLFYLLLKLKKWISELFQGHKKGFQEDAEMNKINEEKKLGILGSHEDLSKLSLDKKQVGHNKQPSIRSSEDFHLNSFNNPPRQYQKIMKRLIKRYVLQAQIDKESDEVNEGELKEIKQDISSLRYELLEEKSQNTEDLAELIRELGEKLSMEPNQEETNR
Assay type: cell-based
In short: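 Readout is pIC50 from four-parameter logistic fitting of inhibition of the OAG-evoked (30 μM final) fluorescence calcium signal. Human TRPC6 stable cells are dye-loaded with probenecid, and compound is applied 20 min ahead of agonist.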

| IC50 | SMILES |
| --- | --- |
| > 1000 nM | Cn1nc(C2CC2)cc1Oc1cc(C#N)ccc1-c1cccc(N)n1 [compound 451, 4-(6-aminopyridin-2-yl)-3-(5-cyclopropyl-2-methylpyrazol-3-yl)oxybenzonitrile] |
| > 1000 nM | Cn1nc(C2CC2)cc1Oc1cc(C#N)ccc1-c1ccc2ccnc(N)c2c1 [compound 452, 4-(1-aminoisoquinolin-7-yl)-3-(5-cyclopropyl-2-methylpyrazol-3-yl)oxybenzonitrile] |
| > 1000 nM | Cn1nc(C2CC2)cc1Oc1cc(C#N)ccc1-c1cccc2c(N)nccc12 [compound 453, 4-(1-aminoisoquinolin-5-yl)-3-(5-cyclopropyl-2-methylpyrazol-3-yl)oxybenzonitrile] |
| < 10 nM | Cc1cc(Oc2cc(C#N)ccc2-c2ncc(CCN)cn2)cc(N2CC3CCC(C2)O3)n1 [compound 454, 4-[5-(2-aminoethyl)pyrimidin-2-yl]-3-[2-methyl-6-(8-oxa-3-azabicyclo[3.2.1]octan-3-yl)pyridin-4-yl]oxybenzonitrile] |
| > 1000 nM | Cc1cc(Oc2cc(C#N)ccc2-c2ncc(CCN)cn2)cc(N2CCNC(=O)C2)n1 [compound 455, 4-[5-(2-aminoethyl)pyrimidin-2-yl]-3-[2-methyl-6-(3-oxopiperazin-1-yl)pyridin-4-yl]oxybenzonitrile] |
| > 1000 nM | Cc1cc(Oc2cc(C#N)ccc2-c2ccc(CCN)cn2)cc(N2CCNC(=O)C2)n1 [compound 456, 4-[5-(2-aminoethyl)pyridin-2-yl]-3-[2-methyl-6-(3-oxopiperazin-1-yl)pyridin-4-yl]oxybenzonitrile] |
| > 1000 nM | Cn1nc(-c2ccccc2)cc1Oc1cc(C#N)ccc1-c1ccc2c(CN)noc2c1 [compound 457, 4-[3-(aminomethyl)-1,2-benzoxazol-6-yl]-3-(2-methyl-5-phenylpyrazol-3-yl)oxybenzonitrile] |
| < 10 nM | COCCN(C)c1cc(Oc2cc(C#N)ccc2-c2ncc(CCN)cn2)cc(C)n1 [compound 458, 4-[5-(2-aminoethyl)pyrimidin-2-yl]-3-[2-[2-methoxyethyl(methyl)amino]-6-methylpyridin-4-yl]oxybenzonitrile] |
| < 10 nM | COCCN(C)c1cc(Oc2cc(C#N)ccc2-c2ccc(CCN)cn2)cc(C)n1 [compound 459, 4-[5-(2-aminoethyl)pyridin-2-yl]-3-[2-[2-methoxyethyl(methyl)amino]-6-methylpyridin-4-yl]oxybenzonitrile] |
| > 1000 nM | CCc1cc(Oc2cc(C#N)ccc2-n2cc(CC(N)C(=O)O)c3ccccc32)n(C)n1 (stereo not drawn) [compound 460, 2-amino-3-[1-[4-cyano-2-(5-ethyl-2-methylpyrazol-3-yl)oxyphenyl]indol-3-yl]propanoic acid] |
| < 10 nM | Cc1cc(Oc2cc(C#N)ccc2-c2ncc(CCN)cn2)cc(NC(C)C)n1 [compound 461, 4-[5-(2-aminoethyl)pyrimidin-2-yl]-3-[2-methyl-6-(propan-2-ylamino)pyridin-4-yl]oxybenzonitrile] |
| > 1000 nM | Cc1cc(Oc2cc(C#N)ccc2-c2ncc(C3(N)CC3)cn2)cc(N2CCOCC2)n1 [compound 462, 4-[5-(1-aminocyclopropyl)pyrimidin-2-yl]-3-(2-methyl-6-morpholin-4-ylpyridin-4-yl)oxybenzonitrile] |
| > 1000 nM | Cn1nc(C2CC2)cc1Oc1cc(C#N)ccc1-c1ncc(C2(N)CC2)cn1 [compound 463, 4-[5-(1-aminocyclopropyl)pyrimidin-2-yl]-3-(5-cyclopropyl-2-methylpyrazol-3-yl)oxybenzonitrile] |
| > 1000 nM | Cc1cc(Oc2cc(C#N)ccc2-c2ccc(CCN)cn2)cc(N2CCN(C)C(=O)C2)n1 [compound 464, 4-[5-(2-aminoethyl)pyridin-2-yl]-3-[2-methyl-6-(4-methyl-3-oxopiperazin-1-yl)pyridin-4-yl]oxybenzonitrile] |
| > 1000 nM | Cc1cc(Oc2cc(C#N)ccc2-c2ncc(CCN)cn2)cc(N2CCN(C)C(=O)C2)n1 [compound 465, 4-[5-(2-aminoethyl)pyrimidin-2-yl]-3-[2-methyl-6-(4-methyl-3-oxopiperazin-1-yl)pyridin-4-yl]oxybenzonitrile] |
| > 1000 nM | Cc1ccc(-c2cc(Oc3cc(C#N)ccc3-c3ncc(CCN)cn3)cc(C)n2)nn1 [compound 466, 4-[5-(2-aminoethyl)pyrimidin-2-yl]-3-[2-methyl-6-(6-methylpyridazin-3-yl)pyridin-4-yl]oxybenzonitrile] |
| < 10 nM | Cc1nc(Oc2cc(C#N)ccc2-c2ncc(CN)cn2)cc(N2CCOCC2)n1 [compound 467, 4-[5-(aminomethyl)pyrimidin-2-yl]-3-(2-methyl-6-morpholin-4-ylpyrimidin-4-yl)oxybenzonitrile] |
| > 1000 nM | Cn1nc(C2CC2)cc1Oc1cc(C#N)ccc1-c1cc(N)nc2ccnn12 [compound 468, 4-(5-aminopyrazolo[1,5-a]pyrimidin-7-yl)-3-(5-cyclopropyl-2-methylpyrazol-3-yl)oxybenzonitrile] |
| < 10 nM | Cn1nc(-c2ccccc2)cc1Oc1cc(C#N)ccc1-c1ccc(C(N)CO)cn1 (stereo not drawn) [compound 469, 4-[5-(1-amino-2-hydroxyethyl)pyridin-2-yl]-3-(2-methyl-5-phenylpyrazol-3-yl)oxybenzonitrile] |
| < 10 nM | Cc1cc(Oc2cc(C#N)ccc2-c2ncc(CCN)cn2)cc(N2CCOC[C@H]2C)n1 [compound 470, 4-[5-(2-aminoethyl)pyrimidin-2-yl]-3-[2-methyl-6-[(3R)-3-methylmorpholin-4-yl]pyridin-4-yl]oxybenzonitrile] |
| < 10 nM | Cc1cc(Oc2cc(C#N)ccc2-c2ncc(CCN)cn2)cc(N2CCOC[C@@H]2C)n1 [compound 471, 4-[5-(2-aminoethyl)pyrimidin-2-yl]-3-[2-methyl-6-[(3S)-3-methylmorpholin-4-yl]pyridin-4-yl]oxybenzonitrile] |
| 10 to 1000 nM | Cc1nc(Oc2cc(C#N)ccc2-c2ncc(CN)cn2)cc(-c2ccccn2)n1 [compound 472, 4-[5-(aminomethyl)pyrimidin-2-yl]-3-(2-methyl-6-pyridin-2-ylpyrimidin-4-yl)oxybenzonitrile] |
| 10 to 1000 nM | Cc1cc(Oc2cc(C#N)ccc2-c2ncc(CCN)cn2)cc(OCC2CCO2)n1 (stereo not drawn) [compound 473, 4-[5-(2-aminoethyl)pyrimidin-2-yl]-3-[2-methyl-6-(oxetan-2-ylmethoxy)pyridin-4-yl]oxybenzonitrile] |
| > 1000 nM | Cc1nc(Oc2cc(C#N)ccc2-c2ncc(CN)cn2)cc(-c2ccc(F)cn2)n1 [compound 474, 4-[5-(aminomethyl)pyrimidin-2-yl]-3-[6-(5-fluoropyridin-2-yl)-2-methylpyrimidin-4-yl]oxybenzonitrile] |
| > 1000 nM | Cn1nc(C2CC2)cc1Oc1cc(C#N)ccc1-c1cccc2nc(N)nn12 [compound 475, 4-(2-amino-[1,2,4]triazolo[1,5-a]pyridin-5-yl)-3-(5-cyclopropyl-2-methylpyrazol-3-yl)oxybenzonitrile] |
| 10 to 1000 nM | Cc1cc(Oc2cc(C#N)ccc2-c2ncc(CC(C)(C)N)cn2)cc(N2CCOCC2)n1 [compound 476, 4-[5-(2-amino-2-methylpropyl)pyrimidin-2-yl]-3-(2-methyl-6-morpholin-4-ylpyridin-4-yl)oxybenzonitrile] |
| < 10 nM | Cn1nc(C2CC2)cc1Oc1cc(C#N)ccc1-c1ncc(CC(C)(C)N)cn1 [compound 477, 4-[5-(2-amino-2-methylpropyl)pyrimidin-2-yl]-3-(5-cyclopropyl-2-methylpyrazol-3-yl)oxybenzonitrile] |
